# Results from patent US10399932B2, “Inhibitors of indoleamine-2,3-dioxygenase for the treatment of cancer” (BRISTOL-MYERS SQUIBB COMPANY, priority 2015, dated 2019).
# pIC50: −log10 of the molar value.
# Biological target: T1, human IDO1 (Homo sapiens, UniProt P14902)
# Assay: Assessment of human IDO-1 inhibitory activity in Hela cells (Interferon-gamma activated, Ehrlich reagent, absorbance at 490 nm)
# Format: cell-based
# Set-up: endogenous in cells; host or cells: HeLa cells stimulated with interferon-gamma
# Settings: 18 hours
# Experimental: Exemplary compounds were tested for inhibition of IDO activity.
# HeLa cells were seeded at 20,000 cells per 30 µL per well with RPMI/phenol red free media containing 10% FBS in a 384-well tissue culture plate (black with clear bottoms). 50 nL of compound was added to cells and incubated at 37° C. for one hour. 20 μL of the recombinant human Interferon-gamma (R&D System, Cat. #285-IF, at final concentration of 10 ng/ml) or recombinant murine Interferon-gamma (PEPROTECH® Inc., Cat. #315-05, final concentration of 5 ng/ml) was added to activate IDO signaling. The cells were incubated for 18 hours in 37° C. incubator with 5% CO2.
# Compound treatment was stopped by adding 5 μl trichloroacetic acid to a final concentration of 3%. Subsequently, the cell plate was further incubated at 50° C. for 30 minute. An equal volume supernatant (20 μL) and 2% (w/v) Ehrlich reagent (4-dimethylaminobenzaldehyde) in glacial acetic acid were mixed in a new clear bottom 384-well plate. This plate was incubated at room temperature for 30 minutes. Absorbance at 490 nm was measured on Envision plate reader.
# Compound IC50 values were calculated using counts from unstimulated (no INF-gamma treatment) wells as 100% inhibition. INF-gamma treatment without compound treatment as 0% inhibition.
# T1 sequence (P14902 whole entry): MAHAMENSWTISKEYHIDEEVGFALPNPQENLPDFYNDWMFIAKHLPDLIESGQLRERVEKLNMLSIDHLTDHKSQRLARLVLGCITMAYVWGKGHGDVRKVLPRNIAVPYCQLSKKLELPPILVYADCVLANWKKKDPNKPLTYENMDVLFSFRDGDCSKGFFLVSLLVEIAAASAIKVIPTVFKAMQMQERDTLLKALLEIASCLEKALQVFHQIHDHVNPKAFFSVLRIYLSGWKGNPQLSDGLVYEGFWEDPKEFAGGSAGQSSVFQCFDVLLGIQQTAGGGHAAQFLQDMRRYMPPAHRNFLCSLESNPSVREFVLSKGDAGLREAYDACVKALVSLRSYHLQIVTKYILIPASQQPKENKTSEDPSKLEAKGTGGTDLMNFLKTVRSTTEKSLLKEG
row,Compound,pIC50
1,"CCCN(c1ccc(C(COC)CC(=O)O)cc1Nc1ccc(F)cc1)C1CCS(=O)(=O)CC1 (single isomer, unassigned) [Example 186, 3-(4-((1,1-dioxidotetrahydro-2H-thiopyran-4-yl)(propyl)amino)-3-((4-fluorophenyl)amino)phenyl)-4-methoxybutanoic acid]",> 8.30
2,"CCC(CC(=O)O)c1ccc(N2CCC(C)CC2)c(Nc2ccc(C#N)cc2)c1 (single isomer, unassigned) [Example 41 Enantiomer 2, 3-(3-((4-Cyanophenyl)amino)-4-(4-methylpiperidin-1-yl)phenyl)pentanoic acid]",> 7.30
3,"CCOc1ncc(Nc2cc(C(COC)CC(=O)O)ccc2N2CCOC[C@@H]2C(C)C)cn1 (single isomer, unassigned) [Example 935]",< 7.30
4,"COCC(CC(=O)O)c1ccc(N2C[C@@H](C)O[C@@H](C)C2)c(Nc2ccc(C#N)cc2)c1 (single isomer, unassigned) [602 E2]",< 7.30
5,"CCc1ccc(Nc2cc(C(COC)CC(=O)O)cc(F)c2N(CC(C)C)CC(C)C)cc1 (single isomer, unassigned) [Example 926, 3-(4-(diisobutylamino)-3-((4-ethylphenyl)amino)-5-fluorophenyl)-4-methoxybutanoic acid.]",> 7.30
6,"CCC(CC(=O)O)c1ccc(N(CC)C2CCCOC2)c(Nc2ccc(C#N)cc2)c1 (single isomer, unassigned) [Example 64, 3-(3-((4-cyanophenyl)amino)-4-(ethyl (tetrahydro-2H-pyran-3-yl)amino)phenyl)pentanoic acid]",> 8.30
7,"COCCN(c1ccc(C(COC)CC(=O)O)cc1Nc1ccc(C#N)cc1)C1CCOCC1 (single isomer, unassigned) [Example 259, 3-(3-((4-cyanophenyl)amino)-4-((2-methoxyethyl)(tetrahydro-2H-pyran-4-yl)amino)phenyl)-4-methoxybutanoic acid]",> 7.30
8,"(S)-3-(4-((1,1-dioxidotetrahydro-2H-thiopyran-4-yl)(ethyl)amino)-3-((2-methoxypyrimidin-5-yl)amino)phenyl)-4-isopropoxybutanoic acid [Example 327]",< 7.30
9,"CCC1COCCN1c1ccc([C@@H](COC)CC(=O)O)cc1Nc1cnc(OC)nc1 (single isomer, unassigned) [Example 1298]",< 7.30
10,(R)-3-(3-((4-cyano-3-methylphenyl)amino)-4-(ethyl(tetrahydro-2H-pyran-4-yl)amino)phenyl)-4-methoxybutanoic acid [Example 391],> 7.30
11,"3-(4-((1,1-dioxidotetrahydro-2H-thiopyran-4-yl)(ethyl)amino)-3-((4-fluorophenyl)amino)phenyl)-4-isopropoxybutanoic acid [Example 340]",> 7.30
12,"CCCN(c1ccc(C(CC)CC(=O)O)cc1Nc1ccc(C#N)cc1)C1CCS(=O)(=O)CC1 (single isomer, unassigned) [Example 12 Enantiomer 2, 3-(3-((4-Cyanophenyl)amino)-4-((1,1-dioxidotetrahydro-2H-thiopyran-4-yl)(propyl)amino)phenyl)pentanoic acid]",> 8.30
13,"(R)-3-(3-((4-chlorophenyl)amino)-4-((1,1-dioxidotetrahydro-2H-thiopyran-4-yl)(ethyl)amino)phenyl)-4-isopropoxybutanoic acid [Example 330]",> 8.30
14,"CCOc1ncc(Nc2cc(C(CC)CC(=O)O)ccc2N2CCOCC2)cn1 (single isomer, unassigned) [Example 7 Enantiomer 1, 3-(3-((2-Ethoxypyrimidin-5-yl)amino)-4-morpholinophenyl)pentanoic acid]",< 7.30
15,"CCOc1ncc(Nc2cc(C(CC(=O)O)C3CC3)ccc2N2C[C@@H](C)O[C@@H](C)C2)cn1 (single isomer, unassigned) [Example 249]",< 7.30
16,"CCOc1ncc(Nc2cc(C(COC)CC(=O)O)ccc2N(C)C2CCOCC2)cn1 (single isomer, unassigned) [Example 885, 3-(3-((2-ethoxypyrimidin-5-yl)amino)-4-(methyl (tetrahydro-2H-pyran-4-yl)amino)phenyl)-4-methoxybutanoic acid]",< 7.30
17,"Cc1ccc(NC(=O)Nc2cc(C(C)CC(=O)O)ccc2N2C[C@@H](C)O[C@@H](C)C2)cc1 (single isomer, unassigned) [Example 753]",< 7.30
18,"(R)-3-(4-((1,1-dioxidotetrahydro-2H-thiopyran-4-yl)(ethyl)amino)-3-((2-methoxypyrimidin-5-yl)amino)phenyl)-4-isopropoxybutanoic acid [Example 332]",< 7.30
19,"CC[C@@H](CC(=O)O)c1ccc(N(CC)C2CCOCC2)c(Nc2ccc(Cl)cn2)c1 (single isomer, unassigned) [Example 460]",> 8.30
20,"CC[C@H](CC(=O)O)c1ccc(N(CC)C2CCOCC2)c(Nc2ccc(C#N)cn2)c1 (single isomer, unassigned) [Example 504]",> 8.30
21,"CCN(c1ccc([C@H](COC)CC(=O)O)cc1Nc1ncc(F)cc1F)C1CCOCC1 (single isomer, unassigned) [Example 395]",< 7.30
22,"(S)-3-(4-((1,1-dioxidotetrahydro-2H-thiopyran-4-yl)(ethyl)amino)-3-((2-ethoxypyrimidin-5-yl)amino)phenyl)-4-isopropoxybutanoic acid [Example 328]",< 7.30
23,"Cc1ccc(NC(=O)Nc2cc(C(CC(=O)O)C3CC3)ccc2N2C[C@@H](C)O[C@@H](C)C2)cc1 (single isomer, unassigned) [Example 251 Enantiomer 2]",< 7.30
24,"CCC(CC(=O)O)c1ccc(N(CC(F)F)C2CCOCC2)c(Nc2ccc(Cl)cc2)c1 (single isomer, unassigned) [Example 318 Enantiomer 2, 3-(3-((4-Chlorophenyl)amino)-4-((2,2-difluoroethyl)(tetrahydro-2H-pyran-4-yl)amino)phenyl)pentanoic acid]",> 8.30
25,"CCC(CC(=O)O)c1ccc(N(CCOC)C2CCOCC2)c(NC(=O)Nc2ccc(Cl)cc2F)c1 (single isomer, unassigned) [Example 1266, 3-(3-(3-(4-chloro-2-fluorophenyl)ureido)-4-((2-methoxyethyl) (tetrahydro-2H-pyran-4-yl)amino)phenyl)pentanoic acid]",> 7.30
26,"CCN(c1ccc(C(CC(=O)O)C2CC2)cc1Nc1ccc(F)cc1)C1CCS(=O)(=O)CC1 (single isomer, unassigned) [Example 347, 3-cyclopropyl-3-(4-((1,1-dioxidotetrahydro-2H-thiopyran-4-yl)(ethyl)amino)-3-((4-fluorophenyl)amino)phenyl)propanoic acid]",> 8.30
27,"CCN(c1ccc([C@@H](COC)CC(=O)O)cc1NC(=O)Nc1ccc(C#N)cc1)C1CCOCC1 [Example 422 E1, (S)-3-(3-(3-(4-Cyanophenyl)ureido)-4-(ethyl(tetrahydro-2H-pyran-4-yl)amino)phenyl)-4-methoxybutanoic acid]",< 7.30
28,"CCC1COCCN1c1ccc([C@@H](COC)CC(=O)O)cc1Nc1ccc(C#N)c(F)c1 (single isomer, unassigned) [Example 1296]",< 7.30
29,"CCC(CC(=O)O)c1cc(Nc2cnc(OC)nc2)c(N(CC)C2CCOCC2)cc1F (single isomer, unassigned) [Example 864, 3-(4-(ethyl(tetrahydro-2H-pyran-4-yl)amino)-2-fluoro-5-((2-methoxypyrimidin-5-yl)amino)phenyl)pentanoic acid]",> 8.30
30,"CCN(c1ccc([C@@H](COC)CC(=O)O)cc1Nc1cccc(OC(F)(F)C(F)F)c1)C1CCOCC1 [Example 361, (S)-3-(4-(ethyl(tetrahydro-2H-pyran-4-yl)amino)-3-((3-(1,1,2,2-tetrafluoroethoxy)phenyl)amino)phenyl)-4-methoxybutanoic acid]",> 8.30

# Biological target: T1, human IDO1
# Assay: Assessment of human IDO-1 inhibitory activity in HEK cells (human IDO1/HEK293 cells, Ehrlich reagent, absorbance at 490 nm)
# Format: cell-based
# Set-up: expressed in transfected cells
# Settings: In Vitro Potency in the HEK Human IDO-1 Cellular Assay
# How it was run: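 Stable human IDO1-expressing HEK293 cells treated with compound for 20 h at 37 °C in phenol red-free RPMI/10% FBS. Stopped with 0.2% TCA (final) and heated 30 min at 50 °C; supernatant mixed with Ehrlich reagent, absorbance read at 490 nm. IC50 normalised to DMSO (0%) and 500 nM reference standard (100% inhibition).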
row,Compound,pIC50
1,"Cc1ccc(CC(=O)Nc2cc(C(CC(=O)O)C3CC3)ccc2N(CC(C)C)C2CCCCC2)cc1 (single isomer, unassigned) [Example 1249, 3-(4-(Cyclohexyl(isobutyl)amino)-3-(2-(p-tolyl)acetamido)phenyl)-3-cyclopropylpropanoic acid]",> 8.30
2,"COCC(CC(=O)O)c1ccc(N(CC(C)C)C2CCC(OC)CC2)c(NC(=O)Nc2ccc(Cl)cc2F)c1 (racemic) [Example 1006, (+/−)-3-(3-(3-(4-Chloro-2-fluorophenyl)ureido)-4-(isobutyl((1r,4r)-4-methoxycyclohexyl)amino)phenyl)-4-methoxybutanoic acid]",> 8.30
3,"CCC(CC(=O)O)c1cc(NC(=O)Nc2cc(C)no2)c(N(CC(C)C)C2CCCCC2)cc1F (single isomer, unassigned) [Example 1115, 3-(4-(Cyclohexyl(isobutyl)amino)-2-fluoro-5-(3-(3-methylisoxazol-5-yl)ureido)phenyl)pentanoic acid]",> 8.30
4,"CCC(CC(=O)O)c1ccc(N2C[C@@H](C)O[C@@H](C)C2)c(Nc2ccc3nc(C)sc3c2)c1 (single isomer, unassigned) [Example 757]",< 7.30
